Assay results reported in BigSolDB 2.1.

C=CC1=C(C(=O)O)N2C(=O)[C@@H](NC(=O)/C(=N\OCC(=O)O)c3csc(N)n3)[C@H]2SC1.O.O.O
solubility (mole fraction)
Details	278.15 K	283.15 K	288.15 K	293.15 K	298.15 K	303.15 K	308.15 K	313.15 K	318.15 K	323.15 K
in acetone	0.00223	0.00276	0.00308	0.00346	0.004	0.0044	0.00518	0.00581	0.00701	0.00854
in ethanol	0.00189	0.0021	0.00246	0.00285	0.00321	0.0037	0.00415	0.00478	0.00536	0.00632
in ethyl acetate	0.000678	0.000747	0.000971	0.00116	0.00139	0.00159	0.00185	0.00226	0.00257	0.00334
in isopropanol	0.000918	0.00105	0.00128	0.00148	0.00178	0.00195	0.0023	0.00255	0.00291	0.0035
in n-butanol	0.000983	0.00102	0.00122	0.00151	0.00172	0.002	0.00249	0.00293	0.00343	0.00437
in n-pentanol	0.000403	0.00051	0.000602	0.000779	0.00101	0.00136	0.00152	0.00191	0.00255	0.003
in sec-butanol	0.000899	0.000995	0.00119	0.00143	0.0015	0.00173	0.00211	0.00234	0.00276	0.00316
